Measurements: US5378730A, “Permeation enhancer comprising ethanol and monoglycerides” (priority 1992, dated 1995)

Format: in vitro ADME, human
Description: The optimum range of water in a permeation-enhancing mixture when used with the drug sodium piroxicam, where the ratio of Myverol 99K monoglyceride to ethanol is 40 to 55.4 in the mixture, was determined as follows. Various ethanol/Myverol 18-99K/water donor compositions, in the weight ratios listed in Table C, were tested with sodium piroxicam to measure their effect upon the drug flux across human cadaver epidermis at 35° C. The ratio of ethanol to monoglyceride was initially 55.4 to 40, to which varying amounts of water were added. All donor compositions were saturated with the drug. Test data were obtained using a 1.13 cm^2 wet-wet horizontal flux cell with 0.2 ml donor solution and 20 ml receptor solutions (pH 7.4 phosphate buffer, 0.05 M).

In the case of `CN1C(C(=O)Nc2ccccn2)=C(O)c2ccccc2S1(=O)=O` [sodium piroxicam], the “optimum range of water content in the permeation-enhancing mixture” value is reported as 23-33 wt %.
